Results from patent EP0466251A1, “Elfamycin-resistant mutants” (priority 1990, dated 1992).
Converted amounts (≈) assume the structure as drawn.

What was measured:
[1] = molecular target: T1, parent SrEF-Tu from S. ramocissimus CBS 190.69 (Streptomyces ramocissimus, UniProt P29542); test: in vitro poly(U) directed poly(phe) synthesis; format: biochemical
T1 construct: made in house; host or cells: E. coli PM1455
Procedure: (§1) The sensitivity of SrEF-Tu mutants A378V and A378T to elfamycin was tested by in vitro studies. Both parent and mutant S. ramocissimus EF-Tu, after transformation of the respective cloned genes, were expressed in an E. coli strain encoding an elfamycin resistant EF-Tu. Cell-free extracts of these transformants were subsequently tested for elfamycin sensitivity of the translation apparatus, using a variation on the procedure described by C. Glöckner and H. Wolf (cited above). […] The parent SrEF-Tu reached 50% residual activity already at 1.6 mg/l. […]
(§2) Plasmids pUSrT1-1, pUSrT1V-1 and pUSrT1T-1 were transformed to E. coli PM1455 (tufA, tufB::Mu, rpoB, recA56; P. van der Meide et al., Eur. J. Biochem. 130 (1983) 409-417); this strain has only one active tuf gene, which encodes an elfamycin resistant EF-Tu. […] The first 4 fractions having absorbance at 260 nm were pooled. […]
(§3) At 0°C an incubation mixture was prepared consisting of 40 mM Tris-acetate pH 7.6, 10 mM Mg-acetate, 60 mM NH₄Cl, 5 mM β-mercaptoethanol, 1 mM ATP, 0.025 mM GTP, 2.5 mM phosphoenolpyruvate, 0.25 µg/ml pyruvate kinase, 0.8 mg/ml tRNA, 0.1 mg/ml poly(U), 95 µM phenylalanine, and 3 µCi/ml ³H-phenylalanine (57 Ci/mmol). […] Incorporation of ³H-phenylalanine was analyzed in a liquid scintillation counter. […]

S. ramocissimus R1V [2] = test: growth of plated mycelium, minimal inhibitory concentration; format: cell-based; conditions: mycelium pregrown in YMG medium without mocimycin; 1 ml of a 16 hrs culture plated
Source text: (§4) Essentially identical results were obtained when for each of the strains spores were substituted by mycelium, pregrown in YMG medium without mocimycin.

[3] = tested on: S. ramocissimus CBS 190.69; test: as above; format: cell-based; conditions: mycelium pregrown in YMG medium without mocimycin; 1 ml of a 16 hrs culture plated
Source text: as §4

SrEF-Tu mutant A378T = molecular target: T2, SrEF-Tu mutant A378T (Streptomyces ramocissimus, UniProt P29542, A379T); test: in vitro poly(U) directed poly(phe) synthesis; format: biochemical, S. ramocissimus
T2 construct: made in house; host or cells: E. coli PM1455
Procedure: as §1, §2, §3

S. ramocissimus R1V [4] = test: regeneration of protoplasts on regeneration medium; format: cell-based; conditions: for Regeneration efficiency of protoplasts: regeneration medium
Procedure: (§5) Spores were isolated essentially as described by D. Hopwood et al. (cited above), and used to inoculate YMG medium (yeast extract 4 g/l, malt extract 10 g/l, glucose 4 g/l) containing 0.5% glycine. Protoplasts were obtained by lysozyme treatment of this culture, transformed as described by D. Hopwood et al. (cited above) with plasmid pMTST1VΔS and pMTST1TΔS. Subsequently the transformed protoplasts were spread on regeneration medium, and incubated at 30°C. Regeneration medium was prepared by mixing equal volumes of sporulation medium and stabilizer medium. Stabilizer medium consisted of NaNO₃ 3 g/l, K₂HPO₄.3H₂O 0.085 g/l, K₂SO₄ 0.25 g/l, FeSO₄.7H₂O 0.01 g/l, trace element solution 0.1 ml, Tris 3.03 g/l, NaCl 2.92 g/l, sucrose 103 g/l, glucose 10 g/l, MgCl₂.6H₂O 5 g/l, CaCl₂.2H₂O 1.5 g/l, and agar 20 g/l, adjusted to pH 7.2 with 4N HCl. […] After 24 hrs the regeneration plates were overlaid with 3 ml soft agar containing 20 µg/ml thiostrepton (D. Hopwood et al., cited above) and incubated at 30°C for 5 days.
(§6) Another test was carried out using protoplasts of strains S. ramocissimus CBS 190.69 and S. ramocissimus R1V, prepared as described in Example 7. […] Thus protoplasts were plated on regeneration medium (Example 7) containing 0 to 0.1 g/l mocimycin. Under these conditions protoplasts of S. ramocissimu CBS 190.69 were able to regenerate only at mocimycin concentrations below 0.02 g/l; regeneration of S. ramocissimus R1V protoplasts in the presence of up to 0.1 g/l mocimycin occurred with the same efficiency as without mocimycin (Table 2).

[5] = tested on: S. ramocissimus CBS 190.69; test: regeneration of protoplasts on regeneration medium; format: cell-based; conditions: for Regeneration efficiency of protoplasts: regeneration medium
Procedure: as §5, §6

[6] = 16 mg/l mocimycin, period of 40 minutes
[7] = S-30 extract of E. coli PM1455 transformant, reaction time 10 minutes
[8] = regeneration medium containing 0 to 0.1 g/l mocimycin

T2 sequence (P29542 whole entry A379T): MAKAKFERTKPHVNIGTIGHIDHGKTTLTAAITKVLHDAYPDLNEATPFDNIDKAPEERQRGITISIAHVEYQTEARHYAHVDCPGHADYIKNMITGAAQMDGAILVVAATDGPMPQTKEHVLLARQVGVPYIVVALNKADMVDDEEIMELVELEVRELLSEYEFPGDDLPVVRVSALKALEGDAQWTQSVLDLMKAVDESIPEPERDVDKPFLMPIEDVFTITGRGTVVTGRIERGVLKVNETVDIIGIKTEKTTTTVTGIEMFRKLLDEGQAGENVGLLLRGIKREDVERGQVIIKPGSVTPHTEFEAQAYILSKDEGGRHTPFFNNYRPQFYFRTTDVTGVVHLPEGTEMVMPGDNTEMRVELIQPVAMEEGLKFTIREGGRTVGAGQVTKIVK
T1 sequence (P29542 whole entry): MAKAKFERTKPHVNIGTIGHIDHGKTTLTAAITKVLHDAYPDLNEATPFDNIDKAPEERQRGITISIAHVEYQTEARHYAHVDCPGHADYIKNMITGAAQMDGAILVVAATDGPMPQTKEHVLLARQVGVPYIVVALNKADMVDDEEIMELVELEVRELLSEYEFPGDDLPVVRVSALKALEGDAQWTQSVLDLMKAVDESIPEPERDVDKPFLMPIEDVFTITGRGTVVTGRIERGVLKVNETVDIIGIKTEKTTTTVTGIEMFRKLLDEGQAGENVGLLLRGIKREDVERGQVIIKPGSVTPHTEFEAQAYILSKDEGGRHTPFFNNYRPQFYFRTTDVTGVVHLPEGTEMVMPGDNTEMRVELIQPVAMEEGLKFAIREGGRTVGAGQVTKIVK

In the case of C/C=C\C=C\[C@@H]1O[C@](O)([C@H](CC)C(=O)NC/C=C/C=C(\C)[C@@H](OC)[C@H](C)[C@@H]2O[C@H](/C=C/C=C/C=C(\C)C(=O)c3c(O)cc[nH]c3=O)[C@H](O)[C@@H]2O)[C@H](O)[C@H](O)C1(C)C [mocimycin, Mocimycin], the “efficiency of ³H-phenylalanine incorporation compared to the mocimycin free reaction” value [1, 6] is reported as at most 20%, the “mocimycin concentration at a residual activity of 50% in the in vitro poly(phe) synthesis” value [1, 7] is reported as 1.6 mg/L and the minimal inhibitory concentration (S. ramocissimus R1V [2]) is reported as 750 µg/mL (≈ 941 µM). For the same compound, the minimal inhibitory concentration [3] was 150 µg/mL (≈ 188 µM), the “efficiency of ³H-phenylalanine incorporation compared to the parallel incubation without mocimycin” value (SrEF-Tu mutant A378T; [6]) was 80% and the “mocimycin concentration at a residual activity of 50% in the in vitro poly(phe) synthesis” value (SrEF-Tu mutant A378T; [7]) was 160 mg/L. For the same compound, the “mocimycin concentration up to which regeneration occurred with the same efficiency as without mocimycin” value (S. ramocissimus R1V [4]; [8]) was “up to 0.1 g/l”, the “Regeneration efficiency of protoplasts” value (S. ramocissimus R1V [4]; mocimycin 0.01 g/l) was 100% and the “Regeneration efficiency of protoplasts” value (S. ramocissimus R1V [4]; mocimycin 0.02 g/l) was 100%. For the same compound, the “Regeneration efficiency of protoplasts” value (S. ramocissimus R1V [4]; mocimycin 0.04 g/l) was 100%, the “Regeneration efficiency of protoplasts” value (S. ramocissimus R1V [4]; mocimycin 0.07 g/l) was 90% and the “Regeneration efficiency of protoplasts” value (S. ramocissimus R1V [4]; mocimycin 0.10 g/l) was 80%. The “mocimycin concentrations at which protoplasts were able to regenerate” value [5, 8] was “below 0.02 g/l”, the “Regeneration efficiency of protoplasts” value ([5]; mocimycin 0.01 g/l) was 40% and the “Regeneration efficiency of protoplasts” value ([5]; mocimycin 0.02 g/l) was 0%. The “Regeneration efficiency of protoplasts” value ([5]; mocimycin 0.04 g/l) was 0%, the “Regeneration efficiency of protoplasts” value ([5]; mocimycin 0.07 g/l) was 0% and the “Regeneration efficiency of protoplasts” value ([5]; mocimycin 0.10 g/l) was 0%.
